Test results published in patent US20240209456A1, “METHODS AND COMPOSITIONS RELATED TO CELL-CYCLE RNA's” (BETH ISRAEL DEACONESS MEDICAL CENTER, priority 2021, published 2024).
*1 amine or outer side, *2 acyl side, *3 side chain or, on linkers, in order; H or OH if unused. Where a SMILES comes first, the peptide text is derived from it. Bridges are numbered along the chain shown (N, C = ends). Roman numbers before positions name the chains, in order. [ ]: non-standard residue; d: D form. Actinocin(9to1) = Cc1c2oc3c(C)ccc(C(=O)[*:1])c3nc-2c(C(=O)[*:2])c(N)c1=O; NMeV = CN[C@H](C(=O)O)C(C)C; Sar = CNCC(=O)O

Columns and labels:
Assay type in all cases: cell-based, human
PU.1 SPEARs = test: qRT-PCR / strand-specific qRT-PCR of PU.1 SPEARs; conditions: HL-60, DRB and ActD, FIG. 10C
Method: (§1) Total RNA isolation was carried out and all RNA samples used in this study were treated with DNase I (10 U of DNase I per 3 μg of total RNA; 37° C. for one hour; in the presence of RNase inhibitor). After DNase I treatment, RNA samples were extracted with acidic phenol (pH 4.3) to eliminate any remaining traces of DNA. cDNA syntheses were performed with Random Primers (Invitrogen) or gene-specific primers with Transcriptor Reverse Transcriptase (Roche Applied Science) according to the manufacturer's recommendation. cDNA was purified with a High Pure PCR Product Purification Kit (Roche Applied Science).
Sybr green reaction was performed using iQ Sybr Green supermix (Biorad, Hercules, CA) using the following parameters: 95° C. (10 min), 40 cycles of 95° C. (15 s) and 60° C. (1 min) 72° C. (1 min). TaqMan analysis was performed using Hotstart Probe One-step qRT-PCR master mix (USB) at the following conditions: 50° C. (10 min.), 95° C. (2 min.), and then 40 cycles of 95° C. (15 sec.) and 60° C. (60 sec.). […]

c-MYC mRNA = test: qRT-PCR of c-MYC mRNA; conditions: HL-60 released from double thymidine block, 2 hrs; MG149 200 μM, TH1834 500 μM
Method: as §1
Sybr green reaction was performed using iQ Sybr Green supermix (Biorad, Hercules, CA) using the following parameters: 95° C. (10 min), 40 cycles of 95° C. (15 s) and 60° C. (1 min) 72° C. (1 min). TaqMan analysis was performed using Hotstart Probe One-step qRT-PCR master mix (USB) at the following conditions: 50° C. (10 min.), 95° C. (2 min.), and then 40 cycles of 95° C. (15 sec.) and 60° C. (60 sec.).
Nascent RNA/DNA capture was performed using Click-iT Nascent RNA Capture Kit (ThermoFisher) according to the manufacturer's instructions with minor modifications. Briefly, 1. Labeling the cells with EU/EdU. 200 mM EU or 30 mM EdU stock solutions were added to the cells, to a final concentration 0.5 mM or 30 μM, respectively. 2. Incubation. The cells were incubated for 1 or 2 hours. 3. […]

acH2A.Z = test: Western blot of total proteins, acH2A.Z normalized by H2A.Z; conditions: HL-60, 2 hours; 200 μM MG149, 500 μM TH1834
Method: Whole-cell lysates from approximately 0.2×10^6 cells per each sample were separated on 12% SDS-PAGE gels and transferred to a nitrocellulose membrane. Immunoblots were stained overnight at 4° C. with the following primary antibodies: H2A.Z (1:2,000; Abcam ab4174), H2A.Z acetyl (K4+K7+K11) (1:2,000; Abcam ab18262) or TIP60 (1:1000; generous gift from Bruno Amati). All secondary horseradish peroxidase (HRP)-conjugated antibodies were diluted 1:5,000 and incubated for 1 hr at room temperature with TBST/5% BSA. Immuno-reactive proteins were detected using the Pierce® ECL system (Thermo Scientific #32106).

| SMILES | PU.1 SPEARs level upon transcription inhibitors (PU.1 SPEARs) | response of total c-MYC mRNA (c-MYC mRNA) | level of acH2A.Z normalized by H2A.Z (acH2A.Z) |
| --- | --- | --- | --- |
| Cc1c2oc3c(C)ccc(C(=O)N[C@@H]4C(=O)N[C@H](C(C)C)C(=O)N5CCC[C@H]5C(=O)N(C)CC(=O)N(C)[C@@H](C(C)C)C(=O)O[C@@H]4C)c3nc-2c(C(=O)N[C@@H]2C(=O)N[C@H](C(C)C)C(=O)N3CCC[C@H]3C(=O)N(C)CC(=O)N(C)[C@@H](C(C)C)C(=O)O[C@@H]2C)c(N)c1=O [ActD, Actinomycin D] (I: T[dV]P[Sar][NMeV] / II: T[dV]P[Sar][NMeV]; ester I:1-I:C, II:1-II:C; linker I:N-II:N via Actinocin(9to1)) | negatively affected | – | – |
| OC[C@H]1O[C@@H](n2cnc3cc(Cl)c(Cl)cc32)[C@H](O)[C@@H]1O [DRB, 5,6-Dichlorobenzimidazole 1-β-D-ribofuranoside] | negatively affected | – | – |
| CCCCCCCc1ccc(CCc2cccc(O)c2C(=O)O)cc1 [MG149] | – | downregulated | Reduction |
| O=C(O)Cn1nnc(-c2ccc(CN(CCCCOc3ccc(CN4CCCC4)cc3)CCc3ccccc3)cc2)n1 [TH1834] | – | downregulated | Reduction |
